Molecular target: T1, Yeast pol δ (Saccharomyces cerevisiae, UniProt P15436)
T1 sequence (P15436 1-1097): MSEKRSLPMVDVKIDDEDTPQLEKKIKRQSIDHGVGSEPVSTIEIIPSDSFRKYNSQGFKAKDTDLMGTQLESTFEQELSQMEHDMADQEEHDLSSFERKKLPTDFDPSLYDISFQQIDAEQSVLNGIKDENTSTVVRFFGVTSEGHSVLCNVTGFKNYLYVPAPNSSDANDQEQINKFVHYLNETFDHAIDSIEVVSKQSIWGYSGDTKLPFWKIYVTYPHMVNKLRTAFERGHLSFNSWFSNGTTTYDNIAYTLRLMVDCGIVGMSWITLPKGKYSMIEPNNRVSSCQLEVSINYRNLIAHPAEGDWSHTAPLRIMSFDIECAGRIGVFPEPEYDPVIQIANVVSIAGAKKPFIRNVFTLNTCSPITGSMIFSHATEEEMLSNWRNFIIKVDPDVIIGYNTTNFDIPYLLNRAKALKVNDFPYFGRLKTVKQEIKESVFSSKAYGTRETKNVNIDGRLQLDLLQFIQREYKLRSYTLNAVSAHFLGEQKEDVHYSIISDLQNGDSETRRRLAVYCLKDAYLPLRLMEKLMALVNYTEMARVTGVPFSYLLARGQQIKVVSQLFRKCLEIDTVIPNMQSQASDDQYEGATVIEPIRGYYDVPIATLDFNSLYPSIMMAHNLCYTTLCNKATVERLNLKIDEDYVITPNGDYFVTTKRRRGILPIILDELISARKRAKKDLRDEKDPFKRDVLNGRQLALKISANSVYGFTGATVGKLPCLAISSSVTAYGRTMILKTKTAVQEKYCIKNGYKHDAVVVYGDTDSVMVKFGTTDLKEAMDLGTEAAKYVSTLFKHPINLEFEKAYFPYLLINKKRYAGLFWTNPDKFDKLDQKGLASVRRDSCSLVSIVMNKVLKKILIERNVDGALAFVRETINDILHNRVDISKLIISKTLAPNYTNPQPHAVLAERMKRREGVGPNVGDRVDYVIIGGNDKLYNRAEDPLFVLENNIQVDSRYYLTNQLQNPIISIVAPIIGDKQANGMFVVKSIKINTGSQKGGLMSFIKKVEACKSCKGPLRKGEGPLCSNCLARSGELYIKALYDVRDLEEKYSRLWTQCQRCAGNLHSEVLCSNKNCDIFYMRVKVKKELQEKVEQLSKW
T1 sequence (P46957 1-487 partner): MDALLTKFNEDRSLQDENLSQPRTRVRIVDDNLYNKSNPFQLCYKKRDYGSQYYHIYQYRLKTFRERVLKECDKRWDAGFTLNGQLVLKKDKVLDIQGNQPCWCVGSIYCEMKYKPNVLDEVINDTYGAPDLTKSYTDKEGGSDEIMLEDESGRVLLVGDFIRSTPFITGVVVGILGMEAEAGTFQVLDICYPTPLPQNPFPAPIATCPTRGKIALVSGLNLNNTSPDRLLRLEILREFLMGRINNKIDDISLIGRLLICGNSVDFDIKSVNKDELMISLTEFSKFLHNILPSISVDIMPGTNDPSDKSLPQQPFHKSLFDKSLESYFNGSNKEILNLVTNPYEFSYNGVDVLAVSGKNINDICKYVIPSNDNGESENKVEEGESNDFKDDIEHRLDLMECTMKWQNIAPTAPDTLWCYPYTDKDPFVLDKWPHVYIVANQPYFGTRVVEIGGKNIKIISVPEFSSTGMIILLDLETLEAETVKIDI
T1 sequence (P47110 1-350 partner): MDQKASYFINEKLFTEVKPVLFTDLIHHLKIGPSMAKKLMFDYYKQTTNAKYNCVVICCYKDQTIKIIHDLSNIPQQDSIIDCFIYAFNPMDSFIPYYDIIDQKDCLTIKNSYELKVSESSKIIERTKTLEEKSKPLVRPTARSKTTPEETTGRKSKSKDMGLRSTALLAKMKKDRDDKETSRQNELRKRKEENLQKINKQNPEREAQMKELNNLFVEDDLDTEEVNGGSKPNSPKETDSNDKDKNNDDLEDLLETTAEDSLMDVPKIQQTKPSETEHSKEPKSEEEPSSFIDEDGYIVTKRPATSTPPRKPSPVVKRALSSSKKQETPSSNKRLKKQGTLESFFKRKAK
Assay: Radioactive gel-based primer extension assay, pol δ
Format: biochemical
Protocol: The reactions with pol κ, pol η, and pol ι were carried out in the buffers containing 25 mM Tris-HCl, pH 7.5, 8 mM MgCl2, 10% glycerol, 100 µg/mL bovine serum albumin, and 5 mM DTT. Buffers for pol δ reactions contained 40 mM Hepes-KOH, pH 6.8, 10% glycerol, 200 µg/mL bovine serum albumin, 1 mM DTT, and 8 mM MgCl2. Final concentration of pol κ, pol η, pol ι, or pol δ in the reaction was 0.25 nM, 1 nM, 2.5 nM, or 4 nM, respectively. In this assay, a polymerase was preincubated with the compound for 15 min at room temperature. Primer extensions were then initiated by the addition of DNA substrate at final concentration of 5 nM and carried out for 30 min at room temperature in the presence of 100 µM dCTP and dGTP. The reactions were terminated by the addition of an equal volume of a dye solution containing 95% (v/v) formamide, 10 mM EDTA, 0.03% (w/v) xylene cyanol, and 0.03% (w/v) bromphenol blue. Reaction products were separated through a 15% acrylamide gel containing 8 M urea and visualized with a PhosphorImager screen. The ratio of extended primer to the total amount of primer was measured using ImageQuant 5.2 software to calculate the percentage of primer extended. IC50 values were determined by fitting the data to variable slope four-parameter equations using GraphPad Prism 5. […]

IC50 pol δ (maximum concentration 80 µM): could not be determined
Compound: CCOc1nc2cccc(C(=O)OC(C)OC(=O)OC3CCCCC3)c2n1Cc1ccc(-c2ccccc2-c2nnn[nH]2)cc1 (centres unmarked) [candesartan cilexetil, Candesartan cilexetil]
Inhibition of pol δ DNA synthesis (several concentrations, maximum 80 µM, data not shown): only at 80 µM concentration was there detectable inhibition

Source: PMC3466269, “A Comprehensive Strategy to Discover Inhibitors of the Translesion Synthesis DNA Polymerase κ” (PLoS ONE, 2012)
